Experimental data from PubChem BioAssay (NCI).
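Grown in 96-well plates, cells were treated for 48 hours with each compound at five concentrations. Insufficient inhibition: endpoint recorded as highest concentration tested. Here, GI50 denotes the concentration required for 50% inhibition of growth. At the TGI there is no net growth.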

Key:
Test in all cases: growth of human tumour cells (NCI), 48 h
786-0 renal = tested on: 786-0 renal
A498 renal = tested on: A498 renal
A549 NSCLC = tested on: A549 NSCLC
ACHN renal = tested on: ACHN renal
BT-549 breast = tested on: BT-549 breast
CAKI-1 renal = tested on: CAKI-1 renal
CCRF-CEM leukemia = tested on: CCRF-CEM leukemia
COLO 205 colon = tested on: COLO 205 colon
DU-145 prostate = tested on: DU-145 prostate
EKVX NSCLC = tested on: EKVX NSCLC
HCC-2998 colon = tested on: HCC-2998 colon
HCT-116 colon = tested on: HCT-116 colon
HCT-15 colon = tested on: HCT-15 colon
HL-60(TB) leukemia = tested on: HL-60(TB) leukemia
HOP-62 NSCLC = tested on: HOP-62 NSCLC
HS 578T breast = tested on: HS 578T breast
HT29 colon = tested on: HT29 colon
IGROV1 ovarian = tested on: IGROV1 ovarian
K-562 leukemia = tested on: K-562 leukemia
KM12 colon = tested on: KM12 colon
LOX IMVI melanoma = tested on: LOX IMVI melanoma
M14 melanoma = tested on: M14 melanoma
MALME-3M melanoma = tested on: MALME-3M melanoma
MCF7 breast = tested on: MCF7 breast
MDA-MB-231 breast = tested on: MDA-MB-231 breast
MDA-MB-435 = tested on: MDA-MB-435
MOLT-4 leukemia = tested on: MOLT-4 leukemia
NCI-H226 lung = tested on: NCI-H226 lung
NCI-H23 lung = tested on: NCI-H23 lung
NCI-H522 lung = tested on: NCI-H522 lung
NCI/ADR-RES ovarian = tested on: NCI/ADR-RES ovarian
OVCAR-3 ovarian = tested on: OVCAR-3 ovarian
OVCAR-4 ovarian = tested on: OVCAR-4 ovarian
OVCAR-5 ovarian = tested on: OVCAR-5 ovarian
OVCAR-8 ovarian = tested on: OVCAR-8 ovarian
PC-3 prostate = tested on: PC-3 prostate
RPMI-8226 leukemia = tested on: RPMI-8226 leukemia
RXF 393 renal = tested on: RXF 393 renal
SF-268 CNS = tested on: SF-268 CNS
SF-295 CNS = tested on: SF-295 CNS
SF-539 CNS = tested on: SF-539 CNS
SK-MEL-2 melanoma = tested on: SK-MEL-2 melanoma
SK-MEL-28 melanoma = tested on: SK-MEL-28 melanoma
SK-OV-3 ovarian = tested on: SK-OV-3 ovarian
SN12C renal = tested on: SN12C renal
SNB-19 CNS = tested on: SNB-19 CNS
SNB-75 CNS = tested on: SNB-75 CNS
SR leukemia = tested on: SR leukemia
SW-620 colon = tested on: SW-620 colon
T-47D breast = tested on: T-47D breast
TK-10 renal = tested on: TK-10 renal
U251 CNS = tested on: U251 CNS
UACC-257 melanoma = tested on: UACC-257 melanoma
UACC-62 melanoma = tested on: UACC-62 melanoma
UO-31 renal = tested on: UO-31 renal

For `CN(c1ccc(Br)cc1)S(=O)(=O)c1ccc(-c2cnc(C3CC3)o2)cc1`, which GI50 (786-0 renal) is on record?
Its GI50 is 397 nM.

And the TGI (786-0 renal)?
Its TGI is over 100000 nM.

And the GI50 (A498 renal)?
Its GI50 is 50 nM.

And the TGI (A498 renal)?
The TGI was 700 nM.

What about the GI50 (A549 NSCLC) of the same compound?
Its GI50 is 321 nM.

And the TGI (A549 NSCLC)?
Its TGI is over 100000 nM.

What about the GI50 (ACHN renal) of the same compound?
The GI50 was 677 nM.

And the TGI (ACHN renal)?
The TGI was over 100000 nM.

What about the GI50 (BT-549 breast) of the same compound?
Its GI50 is 2960 nM.

What about the TGI (BT-549 breast) of the same compound?
Its TGI is over 100000 nM.

What about the GI50 (CAKI-1 renal) of the same compound?
Its GI50 is 84.6 nM.

And the TGI (CAKI-1 renal)?
The TGI was over 100000 nM.

What about the GI50 (CCRF-CEM leukemia) of the same compound?
Its GI50 is 86.2 nM.

What about the TGI (CCRF-CEM leukemia) of the same compound?
The TGI was over 100000 nM.

What about the GI50 (COLO 205 colon) of the same compound?
The GI50 was 370 nM.

What about the TGI (COLO 205 colon) of the same compound?
The TGI was over 100000 nM.

What about the GI50 (DU-145 prostate) of the same compound?
The GI50 was 375 nM.

And the TGI (DU-145 prostate)?
The TGI was over 100000 nM.

What about the GI50 (EKVX NSCLC) of the same compound?
Its GI50 is 454 nM.

And the TGI (EKVX NSCLC)?
The TGI was over 100000 nM.

What about the GI50 (HCC-2998 colon) of the same compound?
The GI50 was 299 nM.

And the TGI (HCC-2998 colon)?
The TGI was over 100000 nM.

What about the GI50 (HCT-116 colon) of the same compound?
The GI50 was 129 nM.

And the TGI (HCT-116 colon)?
The TGI was over 100000 nM.

What about the GI50 (HCT-15 colon) of the same compound?
Its GI50 is 60.3 nM.

What about the TGI (HCT-15 colon) of the same compound?
The TGI was over 100000 nM.

And the GI50 (HL-60(TB) leukemia)?
Its GI50 is 32.6 nM.

And the TGI (HL-60(TB) leukemia)?
Its TGI is 142 nM.

What about the GI50 (HOP-62 NSCLC) of the same compound?
Its GI50 is 412 nM.

And the TGI (HOP-62 NSCLC)?
Its TGI is over 100000 nM.

What about the GI50 (HS 578T breast) of the same compound?
The GI50 was 279 nM.

And the TGI (HS 578T breast)?
The TGI was over 100000 nM.

What about the GI50 (HT29 colon) of the same compound?
Its GI50 is 210 nM.

What about the TGI (HT29 colon) of the same compound?
The TGI was over 100000 nM.

What about the GI50 (IGROV1 ovarian) of the same compound?
The GI50 was 253 nM.

What about the TGI (IGROV1 ovarian) of the same compound?
The TGI was over 100000 nM.

What about the GI50 (K-562 leukemia) of the same compound?
The GI50 was 41.9 nM.

And the TGI (K-562 leukemia)?
The TGI was over 100000 nM.

And the GI50 (KM12 colon)?
The GI50 was 225 nM.

What about the TGI (KM12 colon) of the same compound?
The TGI was over 100000 nM.

And the GI50 (LOX IMVI melanoma)?
The GI50 was 93.9 nM.

And the TGI (LOX IMVI melanoma)?
The TGI was over 100000 nM.

And the GI50 (M14 melanoma)?
Its GI50 is 156 nM.

What about the TGI (M14 melanoma) of the same compound?
The TGI was over 100000 nM.

What about the GI50 (MALME-3M melanoma) of the same compound?
The GI50 was 3840 nM.

And the TGI (MALME-3M melanoma)?
The TGI was over 100000 nM.

What about the GI50 (MCF7 breast) of the same compound?
The GI50 was 45.1 nM.

What about the TGI (MCF7 breast) of the same compound?
The TGI was over 100000 nM.

And the GI50 (MDA-MB-231 breast)?
Its GI50 is 480 nM.

What about the TGI (MDA-MB-231 breast) of the same compound?
The TGI was over 27400 nM.

And the GI50 (MDA-MB-435)?
Its GI50 is 30.9 nM.

And the TGI (MDA-MB-435)?
The TGI was 111 nM.

And the GI50 (MOLT-4 leukemia)?
The GI50 was 286 nM.

And the TGI (MOLT-4 leukemia)?
Its TGI is over 100000 nM.

And the GI50 (NCI-H226 lung)?
Its GI50 is 284 nM.

What about the TGI (NCI-H226 lung) of the same compound?
Its TGI is 7520 nM.

What about the GI50 (NCI-H23 lung) of the same compound?
The GI50 was 393 nM.

What about the TGI (NCI-H23 lung) of the same compound?
Its TGI is over 100000 nM.

What about the GI50 (NCI-H522 lung) of the same compound?
The GI50 was 374 nM.

What about the TGI (NCI-H522 lung) of the same compound?
The TGI was over 100000 nM.

What about the GI50 (NCI/ADR-RES ovarian) of the same compound?
The GI50 was 73.2 nM.

What about the TGI (NCI/ADR-RES ovarian) of the same compound?
The TGI was over 40700 nM.

What about the GI50 (OVCAR-3 ovarian) of the same compound?
Its GI50 is 109 nM.

And the TGI (OVCAR-3 ovarian)?
Its TGI is 5270 nM.

What about the GI50 (OVCAR-4 ovarian) of the same compound?
The GI50 was 774 nM.

What about the TGI (OVCAR-4 ovarian) of the same compound?
The TGI was over 100000 nM.

What about the GI50 (OVCAR-5 ovarian) of the same compound?
The GI50 was 524 nM.

And the TGI (OVCAR-5 ovarian)?
Its TGI is over 100000 nM.

What about the GI50 (OVCAR-8 ovarian) of the same compound?
Its GI50 is 597 nM.

And the TGI (OVCAR-8 ovarian)?
The TGI was over 100000 nM.

What about the GI50 (PC-3 prostate) of the same compound?
Its GI50 is 121 nM.

What about the TGI (PC-3 prostate) of the same compound?
Its TGI is over 100000 nM.

And the GI50 (RPMI-8226 leukemia)?
The GI50 was 209 nM.

And the TGI (RPMI-8226 leukemia)?
Its TGI is 2470 nM.

What about the GI50 (RXF 393 renal) of the same compound?
Its GI50 is 85.9 nM.

And the TGI (RXF 393 renal)?
The TGI was 403 nM.

What about the GI50 (SF-268 CNS) of the same compound?
Its GI50 is 1160 nM.

And the TGI (SF-268 CNS)?
Its TGI is over 100000 nM.

And the GI50 (SF-295 CNS)?
Its GI50 is 71.2 nM.

What about the TGI (SF-295 CNS) of the same compound?
The TGI was over 100000 nM.

And the GI50 (SF-539 CNS)?
Its GI50 is 142 nM.

And the TGI (SF-539 CNS)?
The TGI was 2700 nM.

And the GI50 (SK-MEL-2 melanoma)?
The GI50 was 1340 nM.

What about the TGI (SK-MEL-2 melanoma) of the same compound?
The TGI was over 100000 nM.

What about the GI50 (SK-MEL-28 melanoma) of the same compound?
The GI50 was 9450 nM.

What about the TGI (SK-MEL-28 melanoma) of the same compound?
The TGI was over 100000 nM.

What about the GI50 (SK-OV-3 ovarian) of the same compound?
Its GI50 is 5330 nM.

And the TGI (SK-OV-3 ovarian)?
The TGI was over 100000 nM.

And the GI50 (SN12C renal)?
Its GI50 is 1030 nM.

And the TGI (SN12C renal)?
The TGI was over 100000 nM.

What about the GI50 (SNB-19 CNS) of the same compound?
The GI50 was 271 nM.

And the TGI (SNB-19 CNS)?
Its TGI is over 100000 nM.

What about the GI50 (SNB-75 CNS) of the same compound?
The GI50 was 114 nM.

What about the TGI (SNB-75 CNS) of the same compound?
The TGI was over 52100 nM.

What about the GI50 (SR leukemia) of the same compound?
Its GI50 is 48.5 nM.

What about the TGI (SR leukemia) of the same compound?
The TGI was over 100000 nM.

What about the GI50 (SW-620 colon) of the same compound?
The GI50 was 82.7 nM.

And the TGI (SW-620 colon)?
The TGI was over 100000 nM.

What about the GI50 (T-47D breast) of the same compound?
The GI50 was 839 nM.

And the TGI (T-47D breast)?
The TGI was over 100000 nM.

And the GI50 (TK-10 renal)?
The GI50 was over 64400 nM.

What about the TGI (TK-10 renal) of the same compound?
Its TGI is over 100000 nM.

And the GI50 (U251 CNS)?
Its GI50 is 324 nM.

And the TGI (U251 CNS)?
Its TGI is over 100000 nM.

What about the GI50 (UACC-257 melanoma) of the same compound?
Its GI50 is over 53300 nM.

What about the TGI (UACC-257 melanoma) of the same compound?
Its TGI is over 100000 nM.

And the GI50 (UACC-62 melanoma)?
Its GI50 is 65.8 nM.

What about the TGI (UACC-62 melanoma) of the same compound?
Its TGI is over 100000 nM.

And the GI50 (UO-31 renal)?
Its GI50 is 880 nM.

What about the TGI (UO-31 renal) of the same compound?
The TGI was over 100000 nM.
